Test results taken from ChEMBL document CHEMBL6103674, “Xiapyrroles A-F: N-Alkylpyrrole Alkaloids from the Marine-Derived Actinomycete Streptomyces xiamenensis 1310KO-148” (J Nat Prod, 2025).
The source made the active and inactive calls. No cut-off for these calls is given here.

Legend:
RAW264.7 [1] = test: Cytotoxicity against LPS-induced mouse RAW264.7 cells assessed as reduction in cell viability at 30 uM measured after 24 hrs by XTT assay; assay type: toxicity, cell-based; conditions: raw264.7, 24 h
U-266 = test: Cytotoxicity against human U-266 cells at 30 uM; assay type: functional, cell-based
RPMI 8402 = test: Cytotoxicity against human RPMI 8402 cells at 30 uM; assay type: functional, cell-based
RAW264.7 [2] = test: Anti-inflammatory activity against mouse RAW264.7 cells assessed as inhibition of LPS-induced IL-6 mRNA level pretreated for 1 hr followed by induced with LPS measured after 6 hrs by quantitative RT-PCR analysis; assay type: functional, cell-based; conditions: dose 1-30 µM, time 7.0 hrs
WSUDLCL2 = test: Cytotoxicity against human WSUDLCL2 cells at 30 uM; assay type: functional, cell-based
PC-3 = test: Cytotoxicity against human PC-3 cells at 30 uM; assay type: functional, cell-based
MDA-MB-231 = test: Cytotoxicity against human MDA-MB-231 cells at 30 uM; assay type: functional, cell-based
RAW264.7 [3] = test: Anti-inflammatory activity in LPS-induced mouse RAW264.7 cells assessed as suppression of IL-6 level pretreated for 1 hr followed by LPS addition and measured after 24 hrs by ELISA method; assay type: functional, cell-based
NCI-H23 = test: Cytotoxicity against human NCI-H23 cells at 30 uM; assay type: functional, cell-based
HL-60 = test: Cytotoxicity against human HL-60 cells at 30 uM; assay type: functional, cell-based
Raji = test: Cytotoxicity against human Raji cells at 30 uM; assay type: functional, cell-based
K562 = test: Cytotoxicity against human K562 cells at 30 uM; assay type: functional, cell-based
RAW264.7 [4] = test: Anti-inflammatory activity in LPS-induced mouse RAW264.7 cells assessed as suppression of NO production pretreated for 1 hr followed by LPS addition and measured after 24 hrs by Griess reagent based assay; assay type: functional, cell-based
NUGC-3 = test: Cytotoxicity against human NUGC-3 cells at 30 uM; assay type: functional, cell-based
NALM-6 = test: Cytotoxicity against human NALM-6 cells at 30 uM; assay type: functional, cell-based
ACHN = test: Cytotoxicity against human ACHN cells at 30 uM; assay type: functional, cell-based
HCT-15 = test: Cytotoxicity against human HCT-15 cells at 30 uM; assay type: functional, cell-based
RPMI-1788 = test: Cytotoxicity against human RPMI-1788 cells at 30 uM; assay type: functional, cell-based
RAW264.7 [5] = test: Anti-inflammatory activity against mouse RAW264.7 cells assessed as inhibition of LPS-induced iNOS mRNA level pretreated for 1 hr followed by induced with LPS measured after 6 hrs by quantitative RT-PCR analysis; assay type: functional, cell-based; conditions: dose 1-30 µM, time 7.0 hrs
RAW264.7 [6] = test: Anti-inflammatory activity in LPS-induced mouse RAW264.7 cells assessed as suppression of NO production at 30 uM pretreated for 1 hr followed by LPS addition and measured after 24 hrs by Griess reagent based assay; assay type: functional, cell-based; conditions: time 25.0 hrs

Structure (SMILES): CO[C@@]1(C)C=C(C)C(=O)N1CCc1ccc(O)cc1
- Activity (RAW264.7 [1]): Non-toxic

Structure (SMILES): Cc1cc(C)n(CCc2ccc(O)cc2)c1C=O
- Activity (RAW264.7 [1]): Non-toxic

Structure (SMILES): C=C1C=C(C)C(=O)N1CCc1ccc(O)cc1
- Activity (U-266): inactive
- Activity (RPMI 8402): inactive
- inhibition (RAW264.7 [2]): Dose-dependent-effect
- Activity (WSUDLCL2): inactive
- Activity (PC-3): inactive
- Activity (MDA-MB-231): inactive
- IC50 (RAW264.7 [3]): 10.9 µM
- Activity (RAW264.7 [3]; time 25.0 hrs): Dose-dependent-effect
- Activity (NCI-H23): inactive
- Activity (HL-60): inactive
- Activity (Raji): inactive
- Activity (K562): inactive
- IC50 (RAW264.7 [4]): 29.5 µM
- Activity (RAW264.7 [4]; time 25.0 hrs): Dose-dependent-effect
- Activity (RAW264.7 [1]): Non-toxic
- Activity (NUGC-3): inactive
- Activity (NALM-6): inactive
- Activity (ACHN): inactive
- Activity (HCT-15): inactive
- Activity (RPMI-1788): inactive
- inhibition (RAW264.7 [5]): Dose-dependent-effect
- Activity (RAW264.7 [6]): Active

Structure (SMILES): CC(=O)N(O)CCCn1c(C)cc(C)c1C(=O)[C@@H](O)CO
- Activity (RAW264.7 [1]): Non-toxic

Structure (SMILES): CC1=C[C@@](C)(O)N(CCc2ccc(O)cc2)C1=O
- Activity (RAW264.7 [1]): Non-toxic

Structure (SMILES): CO[C@@]1(C)C=C(C)C(=O)N1CC(=O)c1ccccc1
- Activity (RAW264.7 [1]): Non-toxic
